Data taken from patent publication US6743892B1, “Molecules that home to a selected organ in vivo” (La Jolla Cancer Research Foundation, priority 1995, dated 2004).
Bridge positions count the residues as written; N and C are the ends. Ends that are not written are not given here.

Legend:
[1] = test system: brain; assay: 125I-peptide/RBC complex homing to brain and kidney, with or without unlabeled peptide; format: in vivo, mouse; details: 10 mM unlabeled peptide coadministered
Procedure: The synthetic cyclic CLSSRLDAC (SEQ ID NO: 3) peptide (1 mg) was labeled with iodine-125 using the Bolton and Hunter reagent (Amersham; Arlington Heights Ill.). Labeled peptide was purified by reverse phase HPLC on Sep-Pak™ cartridges (Waters, Millipore Corp.; Milford Pa.) and the ^125I-peptide (200 μg) was coupled to 1 ml glutaraldehyde-stabilized sheep RBC (Sigma Chemical Co.; St. Louis Mo.) according to the manufacturer's instructions.
After 2 min, each mouse was perfused through the heart with 50 ml DMEM and the brain and kidney were removed and assayed for radioactivity.
Approximately twice as much of the CLSSRLDAC/RBC complex (SEQ ID NO: 3) homed to brain than to kidney. […] Coadministration of unlabeled CVRLNSLAC (SEQ ID NO: 43) had no effect on selective homing of the complex to brain and no effect on the non-specific localization of the complex in the kidney.

[2] = test system: brain; assay: Peptide competition of phage homing to brain; format: in vivo, mice; details: 100 μg synthetic cyclic peptide injected with 1×10^8 TU phage
Procedure: In order to confirm the specificity of a peptide for directing homing to a selected organ, peptide competition experiments were performed. The cyclic peptide, CLSSRLDAC (SEQ ID NO: 3), which is one of the brain homing peptides (see Table 1) was synthesized (Immunodynamics; La Jolla Calif.) and purified by HPLC. The effect on the homing of phage expressing CLSSRLDAC (SEQ ID NO: 3), CENWWGDVC (SEQ ID NO: 2) or […] (SEQ ID NO: 16) to the brain was examined in order to determine whether co-administration of the synthetic peptide affected homing of the phage.
Phage expressing CLSSRLDAC (SEQ ID NO: 3), CENWWGDVC (SEQ ID NO: 2) or […] (SEQ ID NO: 16) were titrated to the same concentration and 1×10^8 TU was injected into mice alone, or with 100 μg purified synthetic cyclic CLSSRLDAC (SEQ ID NO: 3) peptide. The synthetic CLSSRLDAC (SEQ ID NO: 3) peptide inhibited the homing of phage expressing CLSSRLDAC (SEQ ID NO: 3) by about 60%.

[3] = test system: brain; assay: Brain homing activity (test not described); details: in vivo

Sequence | effect of coadministration on brain homing of the CLSSRLDAC/RBC complex [1] | effect of coadministration on localization of the CLSSRLDAC/RBC complex in the kidney [1] | effect on homing to brain of CENWWGDVC phage [2] | inhibition of homing to brain of phage expressing CLSSRLDAC [2] | brain homing activity [3]
CLSSRLDAC (disulfide 1-9 (inferred)) | essentially completely inhibited | no effect | did not affect | about 60% | –
CVRLNSLAC [reference compound] | no effect | no effect | – | – | no brain homing activity
